Test system: Mythimna separata
Assay: Test Example 1: efficacy on Mythimna separata (treated artificial feed)
Type: in vivo
Details: 1 μl of 5% emulsion (I) mixed with 0.8 g artificial feed; second instar larvae; 25° C.; fifth day
Procedure: 5 parts of the (hetero)aryl imidazole compound of the present invention, 93.6 parts of dimethylformamide, and 1.4 parts of polyoxyethylene alkyl aryl ether were mixed and dissolved to prepare emulsion (I) containing 5% of the active ingredient.
For a control, 98.5 parts of dimethylformamide and 1.5 parts of polyoxyethylene alkyl aryl ether were mixed and dissolved to prepare emulsion (II).
An insecticidal rate was calculated according to the following expression: Insecticidal rate (%)=(The number of dead insects/The number of tested insects)×100
0.8 g of commercially available artificial feed (Insecta LFS, manufactured by Nosan Corp.) and 1 μl of the emulsion (I) were well mixed to obtain test feed.
A plastic test container (capacity: 1.4 ml) was packed with 0.2 g of the test feed per treatment plot. Then, two second instar larvae of Mythimna separata were inoculated to each treatment plot. A plastic lid was put on the test container so as to prevent escape of the second instar larvae of Mythimna separata. The container was placed in a thermostat chamber of 25° C. On the fifth day, the insecticidal rate and the food intake were examined. The test was conducted in duplicate.
The insecticidal rate and the food intake of a control plot were examined in the same way as in Test Example 1 except that the emulsion (I) was changed to the emulsion (II).

SMILES | insecticidal rate or food intake as compared with the control plot
CCSc1cc(C2CC2)ccc1-c1ncc(C=C(Cl)C(F)(F)F)n1C (mixture of isomers) [d-6] | insecticidal rate of 100% for Mythimna separata or a food intake of 10% or less as compared with the control plot
CCS(=O)(=O)c1cc(C2CC2)ccc1-c1ncc(C=C(Cl)C(F)(F)F)n1C (mixture of isomers) [d-7] | insecticidal rate of 100% for Mythimna separata or a food intake of 10% or less as compared with the control plot
CCS(=O)(=O)c1cc(C2(C(N)=S)CC2)cnc1-c1ncc(C=C(Cl)C(F)(F)F)n1C (mixture of isomers) [d-18] | insecticidal rate of 100% for Mythimna separata or a food intake of 10% or less as compared with the control plot
CCS(=O)(=O)c1cc(C2(C)CC2)cnc1-c1ncc(C=C(Cl)C(F)(F)F)n1C (mixture of isomers) [d-20] | insecticidal rate of 100% for Mythimna separata or a food intake of 10% or less as compared with the control plot
CCS(=O)(=O)c1cc(C2(c3ccccn3)CC2)cnc1-c1ncc(C=C(Cl)C(F)(F)F)n1C (mixture of isomers) [d-21] | insecticidal rate of 100% for Mythimna separata or a food intake of 10% or less as compared with the control plot
CCS(=O)(=O)c1cc(C2CC2)cnc1-c1ncc(C=C(Br)C(F)(F)F)n1C (mixture of isomers) [d-24] | insecticidal rate of 100% for Mythimna separata or a food intake of 10% or less as compared with the control plot
Cn1c(C=C(Cl)C(F)(F)F)cnc1-c1ncc(C2CC2)cc1S(C)(=O)=O (mixture of isomers) [d-28] | insecticidal rate of 100% for Mythimna separata or a food intake of 10% or less as compared with the control plot
CCS(=O)(=O)c1cc(C2CCCC2)cnc1-c1ncc(C=C(Cl)C(F)(F)F)n1C (mixture of isomers) [d-32] | insecticidal rate of 100% for Mythimna separata or a food intake of 10% or less as compared with the control plot
CCS(=O)(=O)c1cc(C2CC2)cnc1-c1ncc(C(F)=C(F)OC(F)(F)F)n1C (mixture of isomers) [d-37] | insecticidal rate of 100% for Mythimna separata or a food intake of 10% or less as compared with the control plot
CCS(=O)(=O)c1cc(C2CC2)c[n+]([O-])c1-c1ncc(C=C(Cl)C(F)(F)F)n1C (mixture of isomers) [e-4] | insecticidal rate of 100% for Mythimna separata or a food intake of 10% or less as compared with the control plot
CCS(=O)(=O)c1cc(C2CC2)cnc1-c1ncc(C=CC(F)(F)C(F)(F)F)n1C [d-1] | insecticidal rate of 100% for Mythimna separata or a food intake of 10% or less as compared with the control plot
CCS(=O)(=O)c1cc(C2CC2)ccc1-c1ncc(C=CC(F)(F)C(F)(F)C(F)(F)F)n1C [d-3] | insecticidal rate of 100% for Mythimna separata or a food intake of 10% or less as compared with the control plot
CCS(=O)(=O)c1cc(C2CC2)cnc1-c1ncc(C=CC(F)(F)C(F)(F)C(F)(F)C(F)(F)F)n1C [d-4] | insecticidal rate of 100% for Mythimna separata or a food intake of 10% or less as compared with the control plot
CCS(=O)(=O)c1cc(C2CC2)ccc1-c1ncc(C=CC(F)(F)C(F)(F)F)n1C [d-5] | insecticidal rate of 100% for Mythimna separata or a food intake of 10% or less as compared with the control plot
CCS(=O)(=O)c1cc(C2CC2)cnc1-c1ncc(C=C(Cl)Cl)n1C [d-8] | insecticidal rate of 100% for Mythimna separata or a food intake of 10% or less as compared with the control plot
CCS(=O)(=O)c1cc(C2CC2)cnc1-c1ncc(C=C(Cl)C(F)(F)C(F)(F)F)n1C [d-12] | insecticidal rate of 100% for Mythimna separata or a food intake of 10% or less as compared with the control plot
CCS(=O)(=O)c1cc(C2CC2)cnc1-c1ncc(C=C(Cl)C(F)(F)C(F)(F)C(F)(F)F)n1C [d-13] | insecticidal rate of 100% for Mythimna separata or a food intake of 10% or less as compared with the control plot
CCS(=O)(=O)c1cc(C2CC2)cnc1-c1ncc(C=C(Cl)I)n1C [d-14] | insecticidal rate of 100% for Mythimna separata or a food intake of 10% or less as compared with the control plot
CCS(=O)(=O)c1cc(C2(C#N)CC2)cnc1-c1ncc(C=C(Cl)C(F)(F)F)n1C [d-15, 1-(6-(5-(2-chloro-3,3,3-trifluoroprop-1-en-1-yl)-1-methyl-1H-imidazol-2-yl)-5-(ethylsulfonyl)pyridin-3-yl)cyclopropane-1-carbonitrile] | insecticidal rate of 100% for Mythimna separata or a food intake of 10% or less as compared with the control plot
CCS(=O)(=O)c1cc(C2(C#N)CC2)cnc1-c1ncc(C=CC(F)(F)F)n1C [d-16] | insecticidal rate of 100% for Mythimna separata or a food intake of 10% or less as compared with the control plot
CCS(=O)(=O)c1cc(C2CC2)cnc1-c1ncc(C=C(C(F)(F)F)C(F)(F)F)n1C [d-19] | insecticidal rate of 100% for Mythimna separata or a food intake of 10% or less as compared with the control plot
CCS(=O)(=O)c1cc(C2(C#N)CC2)cnc1-c1ncc(C=CC(F)(F)C(F)(F)F)n1C [d-22] | insecticidal rate of 100% for Mythimna separata or a food intake of 10% or less as compared with the control plot
CCS(=O)(=O)c1cc(C2(C#N)CC2)cnc1-c1ncc(C=CC(F)(F)C(F)(F)C(F)(F)F)n1C [d-23] | insecticidal rate of 100% for Mythimna separata or a food intake of 10% or less as compared with the control plot
CCS(=O)(=O)c1cc(C2CC2)cnc1-c1ncc(C=C(F)C(F)(F)C(F)(F)C(F)(F)F)n1C [d-27] | insecticidal rate of 100% for Mythimna separata or a food intake of 10% or less as compared with the control plot
CCS(=O)(=O)c1cc(C2(C)CC2)cnc1-c1ncc(C=CC(F)(F)C(F)(F)C(F)(F)F)n1C [d-29] | insecticidal rate of 100% for Mythimna separata or a food intake of 10% or less as compared with the control plot
Cn1c(C=C(Cl)C(F)(F)C(F)(F)F)cnc1-c1ncc(C2CC2)cc1S(C)(=O)=O [d-30] | insecticidal rate of 100% for Mythimna separata or a food intake of 10% or less as compared with the control plot
CCS(=O)(=O)c1cc(C2CC2)cnc1-c1ncc(C=C(Cl)C(F)(F)F)n1C [d-33] | insecticidal rate of 100% for Mythimna separata or a food intake of 10% or less as compared with the control plot
CCS(=O)(=O)c1cc(C2CC2)cnc1-c1ncc(C(F)=C(F)OC(F)(F)C(F)(F)C(F)(F)F)n1C [d-35] | insecticidal rate of 100% for Mythimna separata or a food intake of 10% or less as compared with the control plot
CCS(=O)(=O)c1cc(C2CC2)c[n+]([O-])c1-c1ncc(C=C(F)C(F)(F)C(F)(F)F)n1C [e-1] | insecticidal rate of 100% for Mythimna separata or a food intake of 10% or less as compared with the control plot
